Data reported in article PMC5830763, “Discovery of benzothiazolylquinoline conjugates as novel human A3 receptor antagonists: biological evaluations and molecular docking studies” (Royal Society Open Science, 2018).
“And” between values parts separate entries of the source, which are not always exact repeats. Equal values may be shown once.

Experiments:
[1] = target: T1, hA2BAR (Homo sapiens, UniProt P29275); experiment: Inhibition of NECA-stimulated adenylyl cyclase activity in CHO cells expressing hA2BAR; type: biochemical; conditions: read-out: Ki hA2B (95% CI)
T1 construct: expressed in transfected cells; host or cells: CHO cells (crude membrane pellet)
T1 sequence (P29275 1-332): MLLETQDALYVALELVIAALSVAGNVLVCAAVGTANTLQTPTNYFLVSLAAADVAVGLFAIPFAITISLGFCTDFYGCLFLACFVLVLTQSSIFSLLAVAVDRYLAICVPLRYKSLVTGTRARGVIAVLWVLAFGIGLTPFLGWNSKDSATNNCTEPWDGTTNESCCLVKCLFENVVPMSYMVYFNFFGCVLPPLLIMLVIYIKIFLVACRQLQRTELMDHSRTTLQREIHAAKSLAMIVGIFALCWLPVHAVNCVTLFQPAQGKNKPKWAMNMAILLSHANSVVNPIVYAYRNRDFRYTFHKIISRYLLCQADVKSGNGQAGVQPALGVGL
Experimental: (§1) The human A1, A2A, A2B, and A3ARs were transfected in CHO cells based on the previously reported method. The cells were grown adherently and maintained in Dulbecco's modified Eagle's medium with nutrient mixture F12 (DMEM/F12) without nucleosides, containing 10% foetal calf serum, streptomycin (100 µg ml^−1), penicillin (100 µg ml^−1), L-glutamine (2 mM) and Geneticin (G418, 0.2 mg ml^−1) at 37°C in 5% CO2, 95% air. The membrane preparation was initiated by removal of culture medium followed by washing of the cells with phosphate buffered saline and scraped off T75 flasks in ice-cold hypotonic buffer (5 mM Tris–HCl, 2 mM EDTA, pH7.4). Then the cell suspension was homogenized with a polytron, and the homogenate was centrifuged for 10 min at 1000 g. The supernatant was then centrifuged for 30 min at 100 000 g. The membrane pellet was suspended in (i) 50 mM Tris–HCl buffer, pH 7.4, for A1ARs; (ii) 50 mM Tris–HCl, 10 mM MgCl2 buffer, pH 7.4, for A2AARs; and (iii) 50 mM Tris–HCl, 10 mM MgCl2, 1 mM EDTA buffer, pH 7.4, for A3ARs. The cell suspension was incubated with adenosine deaminase for 30 min at 37°C. Then the membrane preparation was used for binding experiments.
The potency of antagonists at the A2BAR was determined in adenylyl cyclase experiments. For the measurement of adenylyl cyclase activity, only one high speed centrifugation of the homogenate was used. The resulting crude membrane pellet was resuspended in 50 mM Tris–HCl, pH 7.4 and immediately used for the cyclase assay.
(§2) Inhibitory binding constants, Ki, were calculated from the IC50 values according to the Cheng and Prusoff equation Ki = IC50/(1 + [C*]/KD*), where [C*] is the concentration of the radioligand and KD* its dissociation constant. A weighted nonlinear least-squares curve fitting program LIGAND was also used for computer analysis of inhibition experiments. Potency values (IC50) obtained in cyclic AMP assays were calculated by nonlinear regression analysis using the equation for a sigmoid concentration–response curve (Graph Pad Prism, San Diego, CA, USA). All experimental data are expressed as geometric mean with 95% confidence limits in parentheses of three or four independent experiments performed in duplicate.

[2] = target: T2, hA2AAR (Homo sapiens, UniProt P29274); experiment: Displacement of specific [3H]NECA binding at hA2AAR expressed in CHO cells; conditions: [3H]-NECA displacement, n = 3–6, read-out: Ki hA2A (95% CI)
T2 construct: expressed in transfected cells; host or cells: CHO cells (membrane preparation)
T2 sequence (P29274 whole entry): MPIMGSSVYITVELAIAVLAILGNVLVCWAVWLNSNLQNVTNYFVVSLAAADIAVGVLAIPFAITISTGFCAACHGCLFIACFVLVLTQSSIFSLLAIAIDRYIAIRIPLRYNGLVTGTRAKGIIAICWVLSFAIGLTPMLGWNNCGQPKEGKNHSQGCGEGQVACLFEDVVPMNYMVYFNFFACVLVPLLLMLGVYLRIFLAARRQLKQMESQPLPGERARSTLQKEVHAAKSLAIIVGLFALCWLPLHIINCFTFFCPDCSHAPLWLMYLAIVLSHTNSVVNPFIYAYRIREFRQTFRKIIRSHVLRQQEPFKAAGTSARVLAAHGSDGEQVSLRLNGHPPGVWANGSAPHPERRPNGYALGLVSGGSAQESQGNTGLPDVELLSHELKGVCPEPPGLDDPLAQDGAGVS
Description: (§3) The receptor binding affinities of the synthesized benzothiazolylquinoline derivatives (6a-l) are recapitulated in table 2. The binding affinity of the antagonist was estimated by measuring the displacement of selective radioligands which were formerly bound to the receptor expressed (Chinese hamster ovary cells (CHO) for hA1AR, hA2AAR and hA3AR) at the surface of the cell. In this particular assay, the displacement of: (i) specific [3H] CCPA (2-chloro-N(6)-cyclopentyladenosine) binding at hA1AR, (ii) specific [3H] NECA (5'-N-ethylcarboxamidoadenosine) binding at the hA2AAR, and (iii) [3H] HEMADO (2-(1-hexynyl)-N^6-methyladenosine) at the hA3AR were evaluated. […] Ki (dissociation constant) value of the data was calculated using the Cheng and Prusoff equation [49], with geometric means of at least three experiments including 95% confidence intervals. […] Selectivity of this compound at hA3 with respect to hA1 and hA2 has also been reduced to some extent.
as §1
(§4) For radioligand binding at A1 ARs 1 nM [3H] CCPA was used, whereas 30 nM of [3H] NECA were used for A2A and 10 nM of [3H]- HEMADO were used for A3 receptors, respectively. Nonspecific binding of [3H]CCPA was determined in the presence of 1 mM theophylline, when [3H]NECA 100 µM R-PIA was used.
as §2

[3] = target: T3, hA3AR (Homo sapiens, UniProt P0DMS8); experiment: Displacement of specific [3H]HEMADO binding at hA3AR expressed in CHO cells; conditions: for Ki: [3H]-HEMADO displacement, CHO cells, n = 3–6, read-out: Ki hA3 (95% CI); for selectivity hA1/A3: ratio of Ki hA1 to Ki hA3; for selectivity hA2A/A3: ratio of Ki hA2A to Ki hA3 as headed
T3 construct: expressed in transfected cells; host or cells: CHO cells (membrane preparation)
T3 sequence (P0DMS8 1-318): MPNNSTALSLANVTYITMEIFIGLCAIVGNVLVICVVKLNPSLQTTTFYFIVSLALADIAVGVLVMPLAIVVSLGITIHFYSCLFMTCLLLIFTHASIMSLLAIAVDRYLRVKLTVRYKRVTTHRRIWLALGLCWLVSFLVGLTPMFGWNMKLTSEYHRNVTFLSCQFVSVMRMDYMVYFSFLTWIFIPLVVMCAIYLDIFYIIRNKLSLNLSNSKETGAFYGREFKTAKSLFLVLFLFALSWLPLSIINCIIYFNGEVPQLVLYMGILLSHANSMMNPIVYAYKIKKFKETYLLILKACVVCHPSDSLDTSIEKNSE
Experimental: The human A1, A2A, A2B, and A3ARs were transfected in CHO cells based on the previously reported method [47–50]. The cells were grown adherently and maintained in Dulbecco's modified Eagle's medium with nutrient mixture F12 (DMEM/F12) without nucleosides, containing 10% foetal calf serum, streptomycin (100 µg ml^−1), penicillin (100 µg ml^−1), L-glutamine (2 mM) and Geneticin (G418, 0.2 mg ml^−1) at 37°C in 5% CO2, 95% air. The membrane preparation was initiated by removal of culture medium followed by washing of the cells with phosphate buffered saline and scraped off T75 flasks in ice-cold hypotonic buffer (5 mM Tris–HCl, 2 mM EDTA, pH7.4). Then the cell suspension was homogenized with a polytron, and the homogenate was centrifuged for 10 min at 1000 g. The supernatant was then centrifuged for 30 min at 100 000 g. The membrane pellet was suspended in (i) 50 mM Tris–HCl buffer, pH 7.4, for A1ARs; (ii) 50 mM Tris–HCl, 10 mM MgCl2 buffer, pH 7.4, for A2AARs; and (iii) 50 mM Tris–HCl, 10 mM MgCl2, 1 mM EDTA buffer, pH 7.4, for A3ARs. The cell suspension was incubated with adenosine deaminase for 30 min at 37°C. Then the membrane preparation was used for binding experiments.
For radioligand binding at A1 ARs 1 nM [3H] CCPA was used, whereas 30 nM of [3H] NECA were used for A2A and 10 nM of [3H]- HEMADO were used for A3 receptors, respectively [47–50]. Nonspecific binding of [3H]CCPA was determined in the presence of 1 mM theophylline, when [3H]NECA 100 µM R-PIA was used.
Inhibitory binding constants, Ki, were calculated from the IC50 values according to the Cheng and Prusoff equation Ki = IC50/(1 + [C*]/KD*), where [C*] is the concentration of the radioligand and KD* its dissociation constant [49, 50]. A weighted nonlinear least-squares curve fitting program LIGAND was also used for computer analysis of inhibition experiments. […] All experimental data are expressed as geometric mean with 95% confidence limits in parentheses of three or four independent experiments performed in duplicate.

[4] = target: T4, hA1AR (Homo sapiens, UniProt P30542); experiment: Displacement of specific [3H]CCPA binding at hA1AR expressed in CHO cells; conditions: [3H]-CCPA displacement, n = 3–6, read-out: Ki hA1 (95% CI)
T4 sequence (P30542 1-326): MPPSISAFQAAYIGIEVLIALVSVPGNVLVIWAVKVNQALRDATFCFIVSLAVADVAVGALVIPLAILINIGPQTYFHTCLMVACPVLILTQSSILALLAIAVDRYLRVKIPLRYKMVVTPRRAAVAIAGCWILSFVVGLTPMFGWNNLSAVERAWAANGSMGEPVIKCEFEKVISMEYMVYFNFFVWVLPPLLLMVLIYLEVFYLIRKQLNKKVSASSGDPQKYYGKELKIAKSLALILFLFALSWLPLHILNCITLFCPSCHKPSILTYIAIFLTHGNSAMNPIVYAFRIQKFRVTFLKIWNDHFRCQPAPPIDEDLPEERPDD
Description: as §3, §1, §4, §2

c1ccc(-c2nc3ccccc3s2)c(OCCOc2cccc3cccnc23)c1 [Compound 6a]
Ki [1]: > 30 µM
Ki [2]: 23.8 µM
Ki [3]: ~2.6 µM and 2.6 µM
Ki [4]: > 100 µM

Brc1cc(Br)c2cccnc2c1OCCOc1ccccc1-c1nc2ccccc2s1 [Compound 6b]
Ki [1]: > 20 µM
Ki [2]: 17.2 µM
Ki [3]: 3.2 µM
selectivity hA1/A3 [3]: >31.25
selectivity hA2A/A3 [3]: >6.25
melting point: 110 to 112 °C
Ki [4]: > 100 µM

Clc1ccc(OCCOc2ccccc2-c2nc3ccccc3s2)c2ncccc12 [Compound 6c]
Ki [1]: > 20 µM
Ki [2]: 32.8 µM
Ki [3]: 30.4 µM
Ki [4]: 30.8 µM

Clc1cc(I)c(OCCOc2ccccc2-c2nc3ccccc3s2)c2ncccc12 [Compound 6d]
Ki [1]: > 20 µM
Ki [2]: > 20 µM
Ki [3]: 5.6 µM
selectivity hA1/A3 [3]: >17.85
selectivity hA2A/A3 [3]: >3.57
melting point: 125 to 127 °C
Ki [4]: > 100 µM

c1ccc(-c2nc3ccccc3s2)c(OCCCOc2cccc3cccnc23)c1 [Compound 6e]
Ki [1]: > 30 µM
Ki [2]: > 20 µM
Ki [3]: 3.8 µM
Ki [4]: > 100 µM

Brc1cc(Br)c2cccnc2c1OCCCOc1ccccc1-c1nc2ccccc2s1 [Compound 6f]
Ki [1]: > 30 µM
Ki [2]: > 20 µM
Ki [3]: 6.2 µM
Ki [4]: > 100 µM

Clc1ccc(OCCCOc2ccccc2-c2nc3ccccc3s2)c2ncccc12 [Compound 6g]
Ki [1]: > 20 µM
Ki [2]: > 20 µM
Ki [3]: 4.2 µM
Ki [4]: > 100 µM

Clc1cc(I)c(OCCCOc2ccccc2-c2nc3ccccc3s2)c2ncccc12 [Compound 6h]
Ki [1]: > 20 µM
Ki [2]: > 20 µM
Ki [3]: 6.1 µM
Ki [4]: > 100 µM

c1ccc(-c2nc3ccccc3s2)c(OCCCCOc2cccc3cccnc23)c1 [Compound 6i]
Ki [1]: > 20 µM
Ki [2]: 34.9 µM
Ki [3]: 25.4 µM
Ki [4]: 29.7 µM

Brc1cc(Br)c2cccnc2c1OCCCCOc1ccccc1-c1nc2ccccc2s1 [Compound 6j]
Ki [1]: > 20 µM
Ki [2]: > 20 µM
Ki [3]: 6.4 µM
Ki [4]: > 100 µM

Clc1ccc(OCCCCOc2ccccc2-c2nc3ccccc3s2)c2ncccc12 [Compound 6k]
Ki [1]: > 10 µM
Ki [2]: > 20 µM
Ki [3]: 3.7 µM
Ki [4]: > 100 µM

Clc1cc(I)c(OCCCCOc2ccccc2-c2nc3ccccc3s2)c2ncccc12 [Compound 6l]
Ki [1]: > 30 µM
Ki [2]: > 20 µM
Ki [3]: 3.6 µM
Ki [4]: > 100 µM
